Results taken from paper PMC4782163, “A Novel Pentapeptide Targeting Integrin β3-Subunit Inhibits Platelet Aggregation and Its Application in Rat for Thrombosis Prevention” (Frontiers in Pharmacology, 2016).
Like-named read-outs stand apart in the source and are kept apart here. Where a SMILES comes first, the peptide text is derived from it.

Assays:
Kunming mice = system: Kunming mice
Description: Kunming mice (n = 6 for each group) were intravenously injected with different concentrations of P1Cm, ranging from 0.075 to 6 mmol/kg (10x IC90), or tirofiban ranging from 0.025 to 2 mmol/kg (10x IC90). Blood pressure and breath were monitored after injection, and the mesentery were observed under microscope after the animals were sacrificed. Mortality within the next 3 days was recorded.

[1] = system: carotid arterial thrombosis; test: Ferric chloride-induced carotid arterial thrombosis model (CDFI, pathology); type: in vivo, rat; conditions: 0.15 mmol/kg tail vein, Wistar rats, n = 6, mean ± SD
Description: Thirty male Wistar rats (250–300 g) were randomly divided into five groups: high-, middle-, and low-dose treated groups of P1Cm, a saline group, and a tirofiban group (n = 6 per group). The rats were operated on the right common carotid artery (Bird et al., [2008]). Briefly, the rat was first anesthetized by an intraperitoneal injection of ketamine (100 mg/kg). The fascia was bluntly dissected to expose the right common carotid artery immediately after a dosage of 0.15, 0.30, or 0.45 mmoL/kg of P1Cm, 0.15 mmoL/kg of tirofiban, or an equal volume of saline applied accordingly via tail vein injection. A 3 × 4 mm piece of filter paper saturated with ferric chloride (10% solution) was placed under the right carotid artery for 20 min and then removed. Thrombus size and blood flow were detected by color Doppler flow imaging (CDFI) (13 MHz phased-array transducer, LOGIQ S6 Color Doppler Ultrasonographer, GE, USA; Chua et al., [2012]). The animals were kept anesthetized during the CDFI measurements.
To obtain fresh samples immediately after measurement, the animals were sacrificed through an intravenous injection of air, and the injured carotid artery was collected for pathological examination. Carotid artery samples were fixed with 10% neutral buffered formalin and embedded in paraffin wax for routine histological analysis with hematoxylin and eosin staining. Morphometric analysis was carried out using a Leica Q500/W microscope (Leica Microsystems, Wetzlar, Germany). The antithrombosis effect was evaluated by calculating the percentage of carotid artery area covered by the thrombus (Hosokawa et al., [2011]).

[2] = system: artery-vein shunt thrombus formation; test: Artery-vein shunt thrombosis model; type: in vivo, rat
Description: Fifty male Wistar rats (250–300 g) were randomly divided into five groups: high-, middle-, and low-dose groups of P1Cm, a saline group, and a tirofiban group (n = 10 per group). The animals were treated with the same concentrations as in the previous thrombosis model, 0.15, 0.30, or 0.45 mmoL/kg of P1Cm, 0.15 mmoL/kg of tirofiban, or an equal volume of saline by tail vein injection after being anesthetized by an intraperitoneal injection of ketamine (100 mg/kg). The operation was carried out as previously reported (Sato et al., [1998]; Jing et al., [2011]). Briefly, the right carotid and left jugular veins were separated. An 8 cm silk thread was placed inside a polyethylene tube filled with heparin sodium solution (50 IU/mL). The right carotid and left jugular veins were connected with the tube. One end of the tube containing the thread was inserted into the left jugular vein, and the other end was inserted into the right carotid artery. Blood was allowed to flow from the right carotid artery to the left jugular vein through the polyethylene tube for 15 min. The tube was then removed, and the weight of the attached wet thrombus on the thread was measured immediately. The rats were sacrificed through an intravenous injection of air.

plasma coagulation = test: Coagulation parameters in plasma (FIB, TT, PT, APTT)
[3] = dosage IC50 (P1Cm 0.075, tirofiban 0.025 mmol/kg), i.v., n = 6, within 3 days
[4] = dosage IC90, i.v., n = 6, within 3 days

Structure (SMILES)	Mortality (Kunming mice; [3])	Mortality (Kunming mice; [4])	Mortality (Kunming mice; mouse, in vivo, iv)	PSFV (peak systolic flow velocity) [1] [cm/s]	Thrombosis SIZE/area [1]	VSR (vascular stenosis rate) [1] [%]	EMW (thrombosis wet weight) ([2]; 0.15 mmol/kg tail vein, Wistar rats, 15 min shunt, n = 10, mean ± SD) [mg]	Decrease of thrombus weight vs saline group ([2]; 0.15 (mM in the source), rats) [%]	Mortality (Kunming mice; dosage 10x IC90 (P1Cm 6, tirofiban 2 mmol/kg), i.v., n = 6, within 3 days)	Effect on coagulation parameters (plasma coagulation; 0.15 mM, P < 0.05)	FIB (plasma coagulation; tirofiban group (0.15 mM), 5 min 37°C) [g/L]
CC[C@H](C)[C@H](N)C(=O)N[C@@H](CCCNC(=N)N)C(=O)N[C@H](C(=O)N1CCC[C@H]1C(=O)N[C@@H](CCCCN)C(=O)O)[C@@H](C)O [Peptide P1Cm] (H-IRTPK-OH)	0	0	0								
CCCCS(=O)(=O)N[C@@H](Cc1ccc(OCCCCC2CCNCC2)cc1)C(=O)O [Tirofiban]	0	0/6		84.2 ± 3.50	0.007 ± 0.001^* cm^2	28.25 ± 5.83	27.51 ± 4.03	39.92	2/6	apparently inhibited the coagulation and affected the parameters	4.23 ± 0.71
